Entries after “also recorded” stand apart in the source; their conditions may differ.
Target: T1, GCase in fibroblasts bearing the N370S/RecNcil mutation (Homo sapiens, UniProt P04062, A495P/L483P/N409S)
T1 construct: fibroblasts derived from Gaucher patients bearing the N370S/RecNcil and L444P/L444P mutations; host or cells: fibroblasts from Gaucher disease patients, N370S/RecNcil
T1 sequence (P04062 40-536 N409S): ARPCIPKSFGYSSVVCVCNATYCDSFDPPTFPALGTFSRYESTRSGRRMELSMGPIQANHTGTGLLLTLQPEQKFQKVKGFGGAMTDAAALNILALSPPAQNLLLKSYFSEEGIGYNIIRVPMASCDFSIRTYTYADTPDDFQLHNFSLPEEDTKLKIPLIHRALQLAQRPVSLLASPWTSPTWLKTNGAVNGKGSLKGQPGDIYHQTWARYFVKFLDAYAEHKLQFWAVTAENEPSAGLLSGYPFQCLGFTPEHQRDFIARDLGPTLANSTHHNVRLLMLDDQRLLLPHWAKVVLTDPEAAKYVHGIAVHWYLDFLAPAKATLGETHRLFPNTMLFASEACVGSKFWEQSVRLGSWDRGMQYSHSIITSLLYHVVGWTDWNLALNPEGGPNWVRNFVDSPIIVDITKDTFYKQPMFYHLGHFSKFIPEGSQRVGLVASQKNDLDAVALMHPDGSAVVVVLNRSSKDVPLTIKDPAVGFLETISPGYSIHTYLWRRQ
Assay: Pharmacological chaperoning activity in N370S/RecNcil Gaucher fibroblasts
Type: cell-based
Conditions: for cell viability: 50 µM and 100 µM, 4 days; for GCase enzymatic activity rescue: 4 days incubation
Experimental: The ability of compounds 14 and 15 to enhance the activity of GCase after incubation (4 days) with fibroblasts bearing the selected mutations was evaluated. The experiments were performed using fibroblasts derived from Gaucher patients bearing the N370S/RecNcil and L444P/L444P mutations (see the Supporting Information section).
Fibroblasts with the N370S/RecNcil (or L444P/L444P) mutation from Gaucher disease patients were obtained from the “Cell line and DNA Biobank from patients affected by Genetic Diseases” (Gaslini Hospital, Genova, Italy). Fibroblast cells (15.0 × 10^4) were seeded in T25 flasks with DMEM supplemented with fetal bovine serum (10%), penicillin/streptomycin (1%), and glutamine (1%) and incubated at 37 °C with 5% CO2 for 24 h. The medium was removed, and fresh medium containing the compounds (14, 15 and 33·HCl) was added to the cells and incubated for 4 days. The medium was removed, and the cells were washed with PBS and detached with trypsin to obtain cell pellets, which were washed four times with PBS, frozen, and lysed by sonication in water. Enzyme activity was measured as reported above. Reported data are mean S.D. (n = 2).
Pharmacological chaperoning activity
Figure S50. Fibroblasts derived from GD patients bearing N370S/RecNcil mutations were incubated without (control, ctrl) or with 7 different concentrations (10 nM, 50 nM, 100 nM, 1 μM, 10 μM, 50 μM, 100 μM) of compounds 14 and 15. After 4 days, the flasks containing cells incubated with 50 µM and 100 µM […]
other concentrations, the GCase activity was determined in lysates from treated fibroblasts. Reported data are mean S.D. (n=2).
(also on this page, place not known: beta glucosidase activity (nmol/mg/h) beta glucosidase activity (nmol/mg/h)) […]
Figure S51. Fibroblasts derived from GD patients bearing N370S/RecNcil mutations were incubated without (control, ctrl) or with […] different concentrations (5 nM, 10 nM, 100 nM, 1 μM, 10 μM, 30 μM) of compound 33.HCl. After 4 days, the GCase activity was determined in lysates from treated fibroblasts. Reported […]
(also on this page, place not known: beta glucosidase activity (nmol/mg/h))

Row | Structure (SMILES) | cell viability | GCase enzymatic activity rescue (5 nM to 10 μM) | GCase enzymatic activity rescue (5 nM to 30 μM)
1 | CCCCCCCC[C@H]1[C@@H](O)[C@H](O)[C@H](O)CN1CCCCCCCC [compound 14, (2S,3R,4R,5R)-1,2-Dioctylpiperidine-3,4,5-triol] | low cell viability | no enzymatic activity rescue; also recorded: no GCase activity enhancements | 
2 | CCCCCCCC[C@@H]1[C@@H](O)[C@H](O)[C@H](O)CN1CCCCCCCC [compound 15, (2R,3R,4R,5R)-1,2-Dioctylpiperidine-3,4,5-triol] | low cell viability | no enzymatic activity rescue; also recorded: no GCase activity enhancements | 
3 | CCCCCCCC[C@@H]1[C@@H](O)[C@H](O)[C@H](O)CN1C(CCCCCCC)CCCCCCC.Cl [compound 33·HCl, (2R,3R,4R,5R)-2-Octyl-1-(pentadecan-8-yl)-piperidine-3,4,5-triol Hydrochloride] |  |  | no enzymatic activity rescue; also recorded: no GCase activity enhancements

Reference: paper PMC8453635, “Piperidine Azasugars Bearing Lipophilic Chains: Stereoselective Synthesis and Biological Activity as Inhibitors of Glucocerebrosidase (GCase)” (The Journal of Organic Chemistry, 2021)
